Measurements: US9556180B2, “Pyrazolo[3,4-d]pyrimidinone compounds as inhibitors of the P53/MDM2 interaction” (Novartis AG, priority 2013, dated 2017)

How the values were obtained:
[1] = biological target: T1, p53-MDM2 interaction (human MDM2 protein, amino acids 2-188) (Homo sapiens, UniProt Q00987); test: p53-MDM2 Assay 1: TR-FRET inhibition of p53-MDM2 interaction; type: binding; conditions: 1.25 nM MDM2-biotinylated, 10 nM Cy5-p53 peptide
T1 construct: human MDM2 protein (amino acids 2-188); made in house
T1 sequence (Q00987 2-188): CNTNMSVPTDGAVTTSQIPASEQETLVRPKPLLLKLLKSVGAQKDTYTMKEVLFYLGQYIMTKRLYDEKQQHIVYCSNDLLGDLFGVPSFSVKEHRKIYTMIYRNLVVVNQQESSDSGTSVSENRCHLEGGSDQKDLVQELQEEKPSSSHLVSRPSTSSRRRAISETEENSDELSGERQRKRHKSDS
Description: (§1) Time Resolved Fluorescence Energy Transfer (TR-FRET) Assay
(§2) The inhibition of p53-MDM2 and p53-MDM4 interactions is measured by time resolved fluorescence energy transfer (TR-FRET). Fluorescence energy transfer (or Foerster resonance energy transfer) describes an energy transfer between donor and acceptor fluorescent molecules. For this assay, human MDM2 protein (amino acids 2-188) and human MDM4 protein (amino acids 2-185), tagged with a C-terminal biotin moiety, are used in combination with a Europium labeled streptavidin (Perkin Elmer, Inc., Waltham, Mass., USA) serving as the donor fluorophore. The p53 derived, Cy5 labeled peptide Cy5-TFSDLWKLL (p53 aa18-26) is the energy acceptor. Upon excitation of the donor molecule at 340 nm, binding interaction between MDM2 or MDM4 and the p53 peptide induces energy transfer and enhanced response at the acceptor emission wavelength at 665 nm. Disruption of the formation of the p53-MDM2 or p53-MDM4 complex due to an inhibitor molecule binding to the p53 binding site of MDM2 or MDM4 results in increased donor emission at 620 nm. The ratiometric FRET assay readout is calculated from the raw data of the two distinct fluorescence signals measured in time resolved mode (fluorescence 665 nm/fluorescence 620 nm×1000).
(§3) After addition of 1.25 nM MDM2-biotinylated or 2.5 nM MDM4-biotinylated (internal preparations, both MDM2 and MDM4 are biotinylated at the C-terminal of the peptide construct), and 0.625 nM Europium labeled streptavidin (Perkin Elmer), the solution is pre-incubated for 15 minutes at room temperature, then 10 nM Cy5-p53 peptide (internal preparation, the Cy5 dye is directly bound to the N-terminal part of p53 peptide construct) is added before an incubation at room temperature for 15 minutes prior to reading the plate. For measurement of samples, a Victor II microplate reader (Perkin Elmer) is used with the following settings: Excitation 340 nm, Emission Donor 620 nm and Emission Acceptor 665 nm. IC50 values are calculated by curve fitting using XLfit. If not specified, reagents are purchased from Sigma-Aldrich Chemie GmBH, Buchs, Switzerland.
(§4) This assay was used to evaluate compounds displaying inhibition of p53-MDM2 interaction and p53-MDM4 interaction at IC50s of 0.005 to 50 μM (p53-MDM2 Assay 1 and p53-MDM4 Assay 1, respectively). For selected compounds displaying IC50s between […] on MDM2, a slightly modified assay is used with the following adaptations: 0.1 nM MDM2, 0.1 nM Europium labeled streptavidin and Tecan genios Pro is used as a microplate reader for the fluorescence measurements (p53-MDM2 Assay 2).

[2] = biological target: T2, p53-MDM4 interaction (human MDM4 protein, amino acids 2-185) (Homo sapiens, UniProt O15151); test: p53-MDM4 Assay 1: TR-FRET inhibition of p53-MDM4 interaction; type: binding; conditions: 2.5 nM MDM4-biotinylated, 10 nM Cy5-p53 peptide
T2 construct: human MDM4 protein (amino acids 2-185); made in house
T2 sequence (O15151 2-185): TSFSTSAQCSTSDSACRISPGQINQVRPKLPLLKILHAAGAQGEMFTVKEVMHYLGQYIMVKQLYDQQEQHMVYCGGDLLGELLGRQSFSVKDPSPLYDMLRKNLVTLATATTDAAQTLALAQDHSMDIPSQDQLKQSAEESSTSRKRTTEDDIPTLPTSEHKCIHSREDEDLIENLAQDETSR
Description: as §1, §2, §3, §4

[3] = biological target: T1, p53-MDM2 interaction (human MDM2 protein, amino acids 2-188); test: p53-MDM2 Assay 2: slightly modified TR-FRET assay; type: binding; conditions: 0.1 nM MDM2, 0.1 nM Europium labeled streptavidin, Tecan genios Pro reader
Description: as §1, §2, §3, §4

Compound: Cc1cc(Cl)ccc1C1c2c(nn(Cc3ccccn3)c2C(C)C)NC(=O)N1c1cccc(Cl)c1F (centres unmarked) [Example 8, 5-(3-Chloro-2-fluoro-phenyl)-4-(4-chloro-2-methyl-phenyl)-3-isopropyl-2-pyridin-2-ylmethyl-2,4,5,7-tetrahydro-pyrazolo[3,4-d]pyrimidin-6-one]
- IC50 [1]: 3.2 nM
- IC50 [2]: 8.2 µM
- melting point: 150 to 153 °C

Compound: Cc1cc(Cl)ccc1C1c2c(nn(Cc3ccccc3)c2C(C)C)NC(=O)N1c1cc(Cl)ccc1C (centres unmarked) [Example 11, 2-Benzyl-4-(4-chloro-2-methyl-phenyl)-5-(5-chloro-2-methyl-phenyl)-3-isopropyl-2,4,5,7-tetrahydro-pyrazolo[3,4-d]pyrimidin-6-one]
- IC50 [1]: 3.5 nM
- melting point: 105 to 107 °C

Compound: CC(C)=CCn1nc2c(c1C(C)C)C(c1ccc(Cl)cc1C)N(c1cccc(Cl)c1F)C(=O)N2 (centres unmarked) [Example 4, 5-(3-chloro-2-fluorophenyl)-4-(4-chloro-2-methylphenyl) -3-isopropyl-2-(3-methylbut-2-en-1-yl)-4,5-dihydro-2H-pyrazolo[3,4-d]pyrimidin-6(7H)-one]
- IC50 [1]: 3.5 nM
- IC50 [2]: 78.8 µM
- melting point: 81 to 83 °C

Compound: COc1ccccc1-n1nc2c(c1C(C)C)C(c1ccc(Cl)cc1C)N(c1cccc(Cl)c1F)C(=O)N2 (centres unmarked) [Example 5, 5-(3-Chloro-2-fluoro-phenyl)-4-(4-chloro-2-methyl-phenyl)-3-isopropyl-2-(2-methoxy-phenyl)-2,4,5,7-tetrahydro-pyrazolo[3,4-d]pyrimidin-6-one]
- IC50 [1]: 1.45 nM
- IC50 [2]: 1.71 µM
- melting point: 140 to 143 °C

Compound: COc1ccccc1-n1nc2c(c1C(C)C)[C@H](c1ccc(Cl)cc1C)N(c1cccc(Cl)c1F)C(=O)N2 [Example 6, (S)-5-(3-Chloro-2-fluoro-phenyl)-4-(4-chloro-2-methyl-phenyl)-3-isopropyl-2-(2-methoxy-phenyl)-2,4,5,7-tetrahydro-pyrazolo[3,4-d]pyrimidin-6-one]
- IC50 [3]: 0.42 nM
- IC50 [1]: 0.7 nM
- IC50 [2]: 2.76 µM
